According to paper PMC12190436, “5-Ene-2-arylaminothiazol-4(5H)-ones Induce Apoptosis in Breast Cancer Cells” (Cells, 2025):

Experiments:
p53 = p53 concentration, SimpleStep ELISA; format: cell-based, human; conditions: 5 µM, 24 h, MCF-7
Description: (§1) To determine the effects of the new 4-thiazolidinone derivatives and the reference drug on the concentration of p53 and cytochrome C in MCF-7 cell lysates or supernatants after 24 h of treatment, highly sensitive SimpleStep ELISA (enzyme-linked immunosorbent assay) kits (Abcam, Cambridge, UK) were applied. The cells were collected and washed thrice with cold PBS and centrifuged at 1000× g for 5 min at 4 °C. Next, the cells were suspended in lysis buffer to acquire cell lysates. Concurrently, the supernatants, acquired after centrifugation, were frozen immediately at −80 °C. The standards, samples, and antibody cocktail were added to the appropriate microtiter plate wells, followed by 1 h incubation at room temperature. The content of microplate wells was extracted, and the wells were washed thrice. Afterwards, a TMB development solution was added to each well. The enzyme–substrate reaction was terminated with a stop solution. The change in color was assessed by UV-VIS Helios Gamma (Unicam/ThermoFisher Scientific Inc., Cleveland, OH, USA) at 450 ± 2 nm wavelength.
(§2) Both p53 and cytochrome C proteins play pivotal roles in the process of apoptosis. For this reason, concentrations of the mentioned proteins were measured in MCF-7 cells after 24 h treatment with the tested compounds (Les-6416, Les-6418, Les-6381, Les-6423, Les-6424) in concentrations of 5 µM.

cytochrome C = cytochrome C concentration, SimpleStep ELISA; format: cell-based, human; conditions: 5 µM, 24 h, MCF-7
Description: as §1, §2

MCF-7 cells = assay: Acridine orange/ethidium bromide staining, morphology; format: cell-based, human; conditions: 5 µM, 24 h, MCF-7, AO/EB staining
Description: To display morphological changes in the MCF-7 cells after 24 h of treatment by lead compound Les-6416 and the positive control doxorubicin, we performed acridine orange and ethidium bromide staining. MCF-7 cells were seeded in 6-well plates at 1 × 10^5 cells per well in 2 mL medium, followed by incubation for 24 h. Afterwards, the cells were treated with lead compound Les-6416 at a concentration equal to 5 µM and DOX in a concentration equal to 0.5 µM. Next, cells were washed with 1 mL of PBS per well. Subsequently, double staining was performed using 10 µL of AO and EB, incubated at room temperature for 10 min. After that, cells were washed with PBS. Images were obtained with the use of a Nikon ECLIPSE Ti fluorescence microscope (Nikon, Tokyo, Japan). Images were analyzed using ImageJ software version 1.54k (Bethesda, MD, USA).
To analyze morphological changes in MCF-7 cells after 24 h of treatment, we performed the double staining with acridine orange and ethidium bromide. This method provides the capability to observe different stages of cell death depending on cell membrane integrity and chromatin condensation. Green fluorescence can be observed due to acridine orange staining, that penetrates all cells, while red coloring is contributed to ethidium bromide, which can only penetrate cells with injured cell membranes. […]

[1] = test system: Non-small Cell Lung Cancer; format: cell-based
A498 = format: cell-based
SNB-75 = format: cell-based
OVCAR-8 = format: cell-based
MALME -3M = format: cell-based
EKVX = format: cell-based
CNS Cancer = format: cell-based
RXF 393 = format: cell-based
HOP-92 = format: cell-based
SK-MEL-28 = format: cell-based
Colon Cancer = format: cell-based
Leukemia = format: cell-based
SR = format: cell-based
OVCAR-4 = format: cell-based
SK-MEL-2 = format: cell-based
[2] = Homo sapiens, 48 h, read-out: LC50 (the source's name)

SMILES: COc1cc(NC2=NC(=O)C(=Cc3ccc4cc[nH]c4c3)S2)cc(OC)c1OC [Les-6416, 5-((1H-Indol-6-yl)methylene)-2-((3,4,5-trimethoxyphenyl)amino)thiazol-4(5H)-one]
- Concentration of p53 (p53): 2.27 ± 0.55 ng/mL
- Concentration of cytochrome c (cytochrome C): 4.56 ± 0.85 ng/mL
- morphological changes (MCF-7 cells): cell shrinkage and chromatin condensation

SMILES: COc1cc(NC2=NC(=O)C(=Cc3c[nH]c4ccccc34)S2)cc(OC)c1OC [Les-6418, 5-((1H-Indol-3-yl)methylene)-2-((3,4,5-trimethoxyphenyl)amino)thiazol-4(5H)-one]
- GI50 ([1]; Homo sapiens, Non-small Cell Lung Cancer subpanel mean, read-out: MG_MID GI50): 3.66 µM
- CC50 ([1]; Homo sapiens, Non-small Cell Lung Cancer subpanel mean, read-out: MG_MID LC50): 61.1 µM
- MG_MID TGI ([1]; Non-small Cell Lung Cancer subpanel mean): 15.6 µM
- SI (MG_MID TGI) ([1]; Non-small Cell Lung Cancer subpanel, MG_MID_60/value): 1.19
- Growth % (A498; A498, 10 μM, one dose, 48 h): −76.12%
- TGI (A498; A498, 48 h): 24.6 µM
- SI (TGI) (A498; A498, MG_MID_60/value): 0.76
- GI50 (A498; Homo sapiens, A498, 48 h): 10.2 µM
- CC50 (A498; Homo sapiens, A498, 48 h, read-out: LC50 (the source's name)): 59.6 µM
- GI50 (SNB-75; Homo sapiens, SNB-75, 48 h): 1.24 µM
- CC50 (SNB-75; Homo sapiens, SNB-75, 48 h, read-out: LC50 (the source's name)): 11.9 µM
- TGI (SNB-75; SNB-75, 48 h): 3.63 µM
- SI (TGI) (SNB-75; SNB-75, MG_MID_60/value): 5.12
- GI50 (OVCAR-8; Homo sapiens, OVCAR-8, 48 h): 10.6 µM
- LC50 (50% lethal concentration) (OVCAR-8; Homo sapiens, OVCAR-8, 48 h): 70.1 µM
- TGI (OVCAR-8; OVCAR-8, 48 h): 27.2 µM
- SI (TGI) (OVCAR-8; OVCAR-8, MG_MID_60/value): 0.68
- TGI (MALME -3M; 48 h): 15.2 µM
- GI50 (MALME -3M; Homo sapiens, 48 h): 2.01 µM
- CC50 (MALME -3M; [2]): 43.9 µM
- SI (TGI) (MALME -3M; MG_MID_60/value): 1.22
- TGI (EKVX; 48 h): 22.2 µM
- GI50 (EKVX; Homo sapiens, 48 h): 8.02 µM
- LC50 (EKVX; Homo sapiens, 48 h): 53.2 µM
- SI (TGI) (EKVX; MG_MID_60/value): 0.84
- MG_MID TGI (CNS Cancer; CNS Cancer subpanel mean): 14.0 µM
- SI (MG_MID TGI) (CNS Cancer; CNS Cancer subpanel, MG_MID_60/value): 1.33
- GI50 (CNS Cancer; Homo sapiens, CNS Cancer subpanel mean, read-out: MG_MID GI50): 3.24 µM
- CC50 (CNS Cancer; Homo sapiens, CNS Cancer subpanel mean, read-out: MG_MID LC50): 46.1 µM
- GI50 (RXF 393; Homo sapiens, RXF 393, 48 h): 1 µM
- CC50 (RXF 393; Homo sapiens, RXF 393, 48 h, read-out: LC50 (the source's name)): 34 µM
- TGI (RXF 393; RXF 393, 48 h): 5.80 µM
- SI (TGI) (RXF 393; RXF 393, MG_MID_60/value): 3.21
- Growth % (HOP-92; HOP-92, 10 μM, one dose, 48 h): −72.26%
- TGI (HOP-92; HOP-92, 48 h): 6.38 µM
- SI (TGI) (HOP-92; HOP-92, MG_MID_60/value): 2.92
- GI50 (HOP-92; Homo sapiens, HOP-92, 48 h): 1.98 µM
- CC50 (HOP-92; Homo sapiens, HOP-92, 48 h, read-out: LC50 (the source's name)): 42 µM
- GI50 (SK-MEL-28; Homo sapiens, SK-MEL-28, 48 h): 6.07 µM
- CC50 (SK-MEL-28; Homo sapiens, SK-MEL-28, 48 h, read-out: LC50 (the source's name)): 49.9 µM
- TGI (SK-MEL-28; SK-MEL-28, 48 h): 21.0 µM
- SI (TGI) (SK-MEL-28; SK-MEL-28, MG_MID_60/value): 0.89
- MG_MID TGI (Colon Cancer; Colon Cancer subpanel mean): 15.5 µM
- SI (MG_MID TGI) (Colon Cancer; Colon Cancer subpanel, MG_MID_60/value): 1.20
- GI50 (Colon Cancer; Homo sapiens, Colon Cancer subpanel mean, read-out: MG_MID GI50): 2.48 µM
- CC50 (Colon Cancer; Homo sapiens, Colon Cancer subpanel mean, read-out: MG_MID LC50): 55.6 µM
- GI50 (Leukemia; Homo sapiens, Leukemia subpanel mean, read-out: MG_MID GI50): 2.04 µM
- CC50 (Leukemia; Homo sapiens, Leukemia subpanel mean, read-out: MG_MID LC50): > 100 µM
- MG_MID TGI (Leukemia; Leukemia subpanel mean): 49.7 µM
- SI (MG_MID TGI) (Leukemia; Leukemia subpanel, MG_MID_60/value): 0.37
- TGI (SR; 48 h): 29.9 µM
- GI50 (SR; Homo sapiens, 48 h): 0.394 µM
- CC50 (SR; [2]): > 100 µM
- SI (TGI) (SR; MG_MID_60/value): 0.62
- GI50 (OVCAR-4; Homo sapiens, OVCAR-4, 48 h): 2.88 µM
- CC50 (OVCAR-4; Homo sapiens, OVCAR-4, 48 h, read-out: LC50 (the source's name)): 35.3 µM
- TGI (OVCAR-4; OVCAR-4, 48 h): 10.6 µM
- SI (TGI) (OVCAR-4; OVCAR-4, MG_MID_60/value): 1.75
- GI50 (SK-MEL-2; Homo sapiens, SK-MEL-2, 48 h): 1.45 µM
- CC50 (SK-MEL-2; Homo sapiens, SK-MEL-2, 48 h, read-out: LC50 (the source's name)): 43.1 µM
- TGI (SK-MEL-2; SK-MEL-2, 48 h): 12.2 µM
- SI (TGI) (SK-MEL-2; SK-MEL-2, MG_MID_60/value): 1.52
